From the supplement of paper PMC11061612

Experiments:
Test in all cases: combination Emax (second highest fraction inhibited in the dose matrix, 72 h); higher = more inhibition; extreme values may be limits of the assay
[1] = test system: A375 (Melanoma)
In short: (§1)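 Cell lines grown in DMEM/F12 or RPMI with 10% FBS were plated in 1536-well plates and held 24 hours at 37°C, 5% CO2 before 72 hours of exposure to two-drug dose matrices, with DMSO typically at 0.2%. CellTiter-Glo 2.0 luminescence gave viability, which was converted to inhibition. Vehicle wells were set to 0 and blank wells to 1. Combination Emax is the second-highest inhibition in the matrix, and Bliss excess is the observed combination effect minus the expected EA + EB − EA·EB, where EA and EB are the single-agent effects.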

[2] = test system: ATN-1 (T-Lymphoblastic Leukemia)
In short: as §1

[3] = test system: BT-474 (Breast Carcinoma)
In short: as §1

[4] = test system: COR-L105 (Lung Adenocarcinoma)
In short: as §1

[5] = test system: Daudi (Burkitt's Lymphoma)
In short: as §1

[6] = test system: GRANTA-519 (B-Cell Non-Hodgkin's Lymphoma)
In short: as §1

[7] = test system: HT-1197 (Bladder Carcinoma)
In short: as §1

[8] = test system: IGROV-1 (Ovarian Carcinoma)
In short: as §1

[9] = test system: JJN-3 (Plasma Cell Myeloma)
In short: as §1

[10] = test system: JURL-MK1 (Chronic Myelogenous Leukemia)
In short: as §1

[11] = test system: MG-63 (Osteosarcoma)
In short: as §1

[12] = test system: NCI-H2009 (Lung Adenocarcinoma)
In short: as §1

[13] = test system: NCI-H2170 (Squamous Cell Lung Carcinoma)
In short: as §1

[14] = test system: NCI-H2452 (Mesothelioma)
In short: as §1

[15] = test system: OCI-M1 (Acute Myeloid Leukemia)
In short: as §1

[16] = test system: RPMI-8402 (T-Lymphoblastic Leukemia)
In short: as §1

[17] = test system: RS4-11 (B-Lymphoblastic Leukemia)
In short: as §1

[18] = test system: SBC-3 (Small Cell Lung Carcinoma)
In short: as §1

[19] = test system: SNU-1 (Gastric Carcinoma)
In short: as §1

[20] = test system: SUP-HD1 (Hodgkin's Lymphoma)
In short: as §1

| Structure (SMILES) | combination Emax [1] | combination Emax [2] | combination Emax [3] | combination Emax [4] | combination Emax [5] | combination Emax [6] | combination Emax [7] | combination Emax [8] | combination Emax [9] | combination Emax [10] | combination Emax [11] | combination Emax [12] | combination Emax [13] | combination Emax [14] | combination Emax [15] | combination Emax [16] | combination Emax [17] | combination Emax [18] | combination Emax [19] | combination Emax [20] |
| --- | --- | --- | --- | --- | --- | --- | --- | --- | --- | --- | --- | --- | --- | --- | --- | --- | --- | --- | --- | --- |
| C[C@@H]1COCCN1c1cc(C2([S@](C)(=N)=O)CC2)nc(-c2ccnc3[nH]ccc23)n1 [AZD6738] + O=C(c1cc(Cc2n[nH]c(=O)c3ccccc23)ccc1F)N1CCN(C(=O)C2CC2)CC1 [Olaparib] (first compound max 10 µM, 7x7, partner max 10 µM) | 0.66 | 1 | 0.218 | 0.581 | 0.828 | 0.754 | 0.393 | 0.704 | 0.584 | 0.996 | 0.674 | 0.478 | 0.71 | 0.469 | 0.982 | 1 | 0.979 | 0.699 | 0.777 | 0.725 |
| NC1(C(=O)N[C@@H](CCO)c2ccc(Cl)cc2)CCN(c2ncnc3[nH]ccc23)CC1 [Capivasertib] + CC(=O)c1c(C)c2cnc(Nc3ccc(N4CCNCC4)cn3)nc2n(C2CCCC2)c1=O [Palbociclib] (first compound max 10 µM, 7x7, partner max 10 µM) | 0.368 | 0.686 | 0.332 | 0.362 | 0.491 | 0.227 | 0.551 | 0.86 | 0.298 | 1 | 0.712 | 0.242 | 0.527 | 0.474 | 0.61 | 0.947 | 0.605 | 0.67 | 0.621 | 0.569 |
| NC1(C(=O)N[C@@H](CCO)c2ccc(Cl)cc2)CCN(c2ncnc3[nH]ccc23)CC1 [Capivasertib] + CC(C)n1c(=O)n(C)c2cnc3cc(F)c(-c4ccc(OCCCN5CCCCC5)nc4)cc3c21 [AZD1390] (first compound max 10 µM, 7x7, partner max 0.3 µM) | 0.228 | 0.778 | 0.299 | 0.362 | 0.338 | 0.196 | 0.391 | 0.799 | 0.28 | 0.366 | 0.813 | 0.372 | 0.54 | 0.399 | 0.287 | 0.623 | 0.32 | 0.374 | 0.229 | 0.473 |
| NC1(C(=O)N[C@@H](CCO)c2ccc(Cl)cc2)CCN(c2ncnc3[nH]ccc23)CC1 [Capivasertib] + CCN(CCO)CCCOc1ccc2c(Nc3cc(CC(=O)Nc4cccc(F)c4)[nH]n3)ncnc2c1 [AZD2811] (first compound max 10 µM, 7x7, partner max 1 µM) | 0.421 | 0.86 | 0.348 | 0.377 | 0.806 | 0.597 | 0.439 | 0.76 | 0.376 | 0.596 | 0.855 | 0.386 | 0.834 | 0.403 | 0.619 | 0.939 | 0.96 | 0.622 | 0.404 | 0.657 |
| NC1(C(=O)N[C@@H](CCO)c2ccc(Cl)cc2)CCN(c2ncnc3[nH]ccc23)CC1 [Capivasertib] + COc1nnc2ccc(N3CCC(c4ccc(OCCN5CCN(C)C(=O)[C@H]5C)cc4)CC3)nn12 [AZD5153] (first compound max 10 µM, 7x7, partner max 1 µM) | 0.469 | 0.654 | 0.416 | 0.381 | 0.793 | 0.317 | 0.759 | 0.804 | 0.921 | 0.993 | 0.86 | 0.498 | 0.594 | 0.456 | 1 | 0.991 | 0.867 | 0.744 | 0.652 | 0.857 |
| NC1(C(=O)N[C@@H](CCO)c2ccc(Cl)cc2)CCN(c2ncnc3[nH]ccc23)CC1 [Capivasertib] + C[C@@H]1COCCN1C2=NC(=NC(=C2)C3(CC3)[S@](=N)(=O)C)C4=C5C=CNC5=NC=C4 [AZD6738] (first compound max 10 µM, 7x7, partner max 10 µM) | 0.723 | 0.965 | 0.406 | 0.501 | 0.709 | 0.892 | 0.491 | 0.865 | 0.603 | 1 | 0.855 | 0.453 | 0.809 | 0.72 | 0.985 | 0.997 | 0.967 | 0.69 | 0.718 | 0.762 |
| NC1(C(=O)N[C@@H](CCO)c2ccc(Cl)cc2)CCN(c2ncnc3[nH]ccc23)CC1 [Capivasertib] + Cn1cnc2c(F)c(Nc3ccc(Br)cc3Cl)c(C(=O)NOCCO)cc21 [Selumetinib] (first compound max 10 µM, 7x7, partner max 10 µM) | 0.832 | 0.77 | 0.39 | 0.492 | 0.212 | 0.205 | 0.531 | 0.882 | 0.358 | 1 | 0.793 | 0.584 | 0.653 | 0.344 | 0.926 | 0.633 | 0.468 | 0.346 | 0.574 | 0.496 |
| COc1cccc2c1C(=O)c1c(O)c3c(c(O)c1C2=O)C[C@@](O)(C(=O)CO)C[C@@H]3O[C@H]1C[C@H](N)[C@H](O)[C@H](C)O1 [Doxorubicin] + Cc1cc2ncnn2cc1Nc1ncc2c(n1)n(C1CCOCC1)c(=O)n2C [AZD7648] (first compound max 1 µM, 7x7, partner max 10 µM) | 0.949 | 0.996 | 0.197 | 0.473 | 0.956 | 0.856 | 0.735 | 0.611 | 0.735 | 1 | 0.896 | 0.546 | 0.891 | 0.462 | 0.963 | 1 | 0.977 | 0.968 | 0.848 | 0.878 |
| CS(=O)(=O)CCNCc1ccc(-c2ccc3ncnc(Nc4ccc(OCc5cccc(F)c5)c(Cl)c4)c3c2)o1 [Lapatinib] + C[C@@H](Oc1cc(-c2cnn(C3CCNCC3)c2)cnc1N)c1c(Cl)ccc(F)c1Cl [Crizotinib] (first compound max 10 µM, 7x7, partner max 10 µM) | 0.86 | 0.988 | 0.905 | 0.815 | 0.945 | 0.751 | 0.536 | 1 | 0.902 | 1 | 0.936 | 0.732 | 0.998 | 0.804 | 0.996 | 0.995 | 0.883 | 0.971 | 0.857 | 0.895 |
| CC(=O)c1c(C)c2cnc(Nc3ccc(N4CCNCC4)cn3)nc2n(C2CCCC2)c1=O [Palbociclib] + CC1(C)CCC(CN2CCN(c3ccc(C(=O)NS(=O)(=O)c4ccc(NCC5CCOCC5)c([N+](=O)[O-])c4)c(Oc4cnc5[nH]ccc5c4)c3)CC2)=C(c2ccc(Cl)cc2)C1 [Venetoclax] (first compound max 10 µM, 7x7, partner max 1 µM) | 0.195 | 0.608 | 0.0591 | 0.0862 | 0.442 | 0.541 | 0.16 | 0.537 | 0.261 | 0.661 | 0.345 | 0.0582 | 0.362 | 0.282 | 0.499 | 0.972 | 1 | 0.613 | 0.451 | 0.758 |
| CC(=O)c1c(C)c2cnc(Nc3ccc(N4CCNCC4)cn3)nc2n(C2CCCC2)c1=O [Palbociclib] + Cc1c2c(nn1C)CSCc1cc(n(C)n1)CSc1cc(c3ccccc3c1)OCCCc1c(C(=O)O)n(C)c3c-2c(Cl)ccc13 [AZD5991] (first compound max 10 µM, 7x7, partner max 1 µM) | 0.356 | 0.954 | 0.497 | 0.207 | 0.571 | 0.295 | 0.247 | 0.815 | 0.992 | 1 | 0.406 | 0.179 | 0.389 | 0.336 | 0.457 | 0.974 | 0.841 | 0.806 | 0.805 | 0.62 |
| CC(=O)c1c(C)c2cnc(Nc3ccc(N4CCNCC4)cn3)nc2n(C2CCCC2)c1=O [Palbociclib] + Cn1cnc2c(F)c(Nc3ccc(Br)cc3Cl)c(C(=O)NOCCO)cc21 [Selumetinib] (first compound max 10 µM, 7x7, partner max 10 µM) | 0.705 | 0.48 | 0.0817 | 0.403 | 0.415 | 0.367 | 0.245 | 0.782 | 0.168 | 1 | 0.431 | 0.363 | 0.3 | 0.331 | 0.833 | 0.957 | 0.488 | 0.744 | 0.491 | 0.445 |
| COc1cccc(OCCCN)c1-c1cc(Nc2cnc(C#N)cn2)n[nH]1 [Prexasertib] + C=CCn1c(=O)c2cnc(Nc3ccc(N4CCN(C)CC4)cc3)nc2n1-c1cccc(C(C)(C)O)n1 [AZD1775] (first compound max 1 µM, partner max 1 µM) | 0.952 | 1 | 0.234 | 0.444 | 0.968 | 0.867 | 0.646 | 0.788 | 0.985 | 1 | 0.972 | 0.849 | 0.95 | 0.832 | 0.969 | 1 | 1 | 0.923 | 0.916 | 0.906 |
